Laboratory results as given in patent US7414049B2, “4-oxo-2,3,4,5-tetrahydro-benzo[b][1,4]diazepine derivatives” (Hoffmann-La Roche Inc., priority 2006, dated 2008).
In brackets after ≈: the same amount, converted by molar mass.

How the values were obtained:
[1] = Microsome incubation, metabolic stability (human); assay type: in vitro ADME; settings: for MAB (human): maximal achievable bioavailability = 1-E, extrapolated from intrinsic clearance; for microsomal CLint at 10 μM: pH 7.4, human liver microsomes 2.0 mg prot/mL, test compound 10 μM, 37° C., read-out: Intrinsic clearance (human)
Procedure: The compounds of formula I of the present invention are further characterized by high metabolic stability. This parameter is a prerequisite for good bioavailability, which is necessary to obtain medicaments with acceptable in-vivo activity. The metabolic stability has been tested by the following method:
Incubation mixtures consisted of liver microsomes (rat 1.0 mg prot/mL or human 2.0 mg prot/mL), test compound 10 μM, MgCl2 (3.3 mM), and an NADPH regenerating system consisting of glucose-6-phosphate dehydrogenase, NADPH and glucose-6-phosphate (equivalent to 1 mM NADPH) in a total volume of 1.0 mL of potassium phosphate buffer 100 mM pH 7.4. Reactions were initiated by addition of the NADPH regenerating system at 37° C. At the time of 1, 5, 9, 13, 17, 21, 25, and 29 min a 5 μL aliquot was directly analysed on a HPLC-MS/MS system consisting of a HP 1100 quaternary pump with degasser and a PE-Sciex API-2000 MS/MS spectrometer. The analytical column was a Waters Symmetry Shield RP8 (2.1*50 mm with a […] particle size). A polarity non linear gradient from phase A (MeOH/Ac. Form. 1% 20/80) to phase B (MeOH) was applied for a total run time of 2 minutes at a flow rate of 0.25 mL/min. The PE-Sciex API-2000 MS/MS spectrometer was used for detection of the parent compound. In vivo metabolic clearance was predicted according to published procedures [Houston, Biochem. Pharmacol. 47:1469-1479 (1994)]. In brief, the intrinsic clearance (Clearance, see table below) is calculated from the measured in vitro half-life taking into account incubation volume and microsomal protein used for the in vitro incubation. The intrinsic clearance is expressed in terms of μl/min/mg microsomal protein. For in vivo extrapolations, the hepatic extraction ratio (E) was calculated. Here it is reported the % MAB value which is equal to 1-E. The MAB (maximal achievable bioavailability) values express the maximal bioavailability that one can achieve with the given clearance values.

[2] = Microsome incubation, metabolic stability (mouse); assay type: in vitro ADME; settings: for MAB (mouse): maximal achievable bioavailability = 1-E, extrapolated from intrinsic clearance; for microsomal CLint at 10 μM: pH 7.4, liver microsomes, test compound 10 μM, 37° C., read-out: Intrinsic clearance (mouse)
[3] = THESA assay, thermodynamic solubility; assay type: physicochemical; settings: 22.5 °C, aqueous buffer, thermodynamic from solid; 50 mM phosphate buffer, room temperature (22.5±1° C.)
Procedure: In addition, the compounds of the present invention have been tested in a THESA assay for determination of the thermodynamic solubility.
Approximately 2 mg of each compound was added in excess to a 50 mM phosphate buffer, at room temperature (22.5±1° C.). Each sample was placed in a microanalysis tube, which was sonicated for 1 h and agitated for 2 h. All suspensions were left overnight. At the next day all pHs were measured with a pH-meter and the samples filtered with a micronic filterplate (MSGVN2250) to separate the solid material from the solution. Then, all solutions were analyzed by HPLC. The calibration line was established by different concentrations of the compound in DMSO. From this regression equation the solubility of the compound was determined.

In the case of `CC(O)(C(=O)NCC(F)(F)C(F)(F)F)C(=O)N[C@H]1CN(C(=O)OCC(F)(F)F)c2cc(F)c(F)cc2NC1=O` (single isomer, unassigned) [Example 1, (S)-7,8-Difluoro-3-[(R or S)-2-hydroxy-2-(2,2,3,3,3-pentafluoro-propylcarbamoyl)-propionylamino]-4-oxo-2,3,4,5-tetrahydro-benzo[b][1,4]diazepine-1-carboxylic acid 2,2,2-trifluoro-ethyl ester and (S)-7,8-Difluoro-3-[(S or R)-2-hydroxy-2-(2,2,3,3,3-pentafluoro-propylcarbamoyl)-propionylamino]-4-oxo-2,3,4,5-tetrahydro-benzo[b][1,4]diazepine-1-carboxylic acid 2,2,2-trifluoro-ethyl ester], the “MAB (human)” value [1] is reported as 99.7%, the microsomal CLint at 10 μM [1] is reported as 0.05 µL/min/mg and the “MAB (mouse)” value [2] is reported as 58.5%. The microsomal CLint at 10 μM [2] was 22.4 µL/min/mg and the solubility thermodynamic [3] was 0.077 mg/mL (≈ 131 µM).
With `CC(O)(C(=O)NCC(F)(F)C(F)(F)F)C(=O)N[C@H]1CN(CCC(F)(F)F)c2ccccc2NC1=O` (single isomer, unassigned) [Example 5, (R or S)-2-Hydroxy-2-methyl-N-[(S)-4-oxo-1-(3,3,3-trifluoro-propyl)-2,3,4,5-tetrahydro-1H-benzo[b][1,4]diazepin-3-yl]-N′-(2,2,3,3,3-pentafluoro-propyl)-malonamide and (S or R)-2-Hydroxy-2-methyl-N-[(S)-4-oxo-1-(3,3,3-trifluoro-propyl)-2,3,4,5-tetrahydro-1H-benzo[b][1,4]diazepin-3-yl]-N′-(2,2,3,3,3-pentafluoro-propyl)-malonamide] the “MAB (human)” value [1] was 45.5%, the microsomal CLint at 10 μM [1] was 18.6 µL/min/mg and the “MAB (mouse)” value [2] was 10.8%. The microsomal CLint at 10 μM [2] was 262 µL/min/mg and the solubility thermodynamic [3] was 0.067 mg/mL (≈ 129 µM).
With `CC(O)(C(=O)NCC(F)(F)C(F)(F)F)C(=O)N[C@H]1CN(CCCC(F)(F)F)c2ccccc2NC1=O` (single isomer, unassigned) [Example 6, (R or S)-2-Hydroxy-2-methyl-N-[(S)-4-oxo-1-(4,4,4-trifluoro-butyl)-2,3,4,5-tetrahydro-1H-benzo[b][1,4]diazepin-3-yl]-N′-(2,2,3,3,3-pentafluoro-propyl)-malonamide and (S or R)-2-Hydroxy-2-methyl-N-[(S)-4-oxo-1-(4,4,4-trifluoro-butyl)-2,3,4,5-tetrahydro-1H-benzo[b][1,4]diazepin-3-yl]-N′-(2,2,3,3,3-pentafluoro-propyl)-malonamide] the “MAB (human)” value [1] was 49.4%, the microsomal CLint at 10 μM [1] was 15.9 µL/min/mg and the “MAB (mouse)” value [2] was 25.0%. For the same compound, the microsomal CLint at 10 μM [2] was 94.9 µL/min/mg and the solubility thermodynamic [3] was 0.124 mg/mL (≈ 232 µM).
With `CC(O)(C(=O)NCC(F)(F)C(F)(F)F)C(=O)N[C@H]1CN(CCO)c2ccccc2N(CC(F)(F)F)C1=O` (single isomer, unassigned) [Example 8, (R or S)-2-Hydroxy-N-[(S)-5-(2-hydroxy-ethyl)-2-oxo-1-(2,2,2-trifluoro-ethyl)-2,3,4,5-tetrahydro-1H-benzo[b][1,4]diazepin-3-yl]-2-methyl-N′-(2,2,3,3,3-pentafluoro-propyl)-malonamide] the “MAB (human)” value [1] was 100.0%, the “MAB (mouse)” value [2] was 37.5% and the microsomal CLint at 10 μM [2] was 52.7 µL/min/mg. The solubility thermodynamic [3] was 2.67 mg/mL (≈ 4850 µM).
With `CC(O)(C(=O)NCC(F)(F)C(F)(F)F)C(=O)N[C@H]1CN(CC(F)(F)F)c2ccccc2N(CCO)C1=O` (single isomer, unassigned) [Example 9, (R or S)-2-Hydroxy-N-[(S)-1-(2-hydroxy-ethyl)-2-oxo-5-(2,2,2-trifluoro-ethyl)-2,3,4,5-tetrahydro-1H-benzo[b][1,4]diazepin-3-yl]-2-methyl-N′-(2,2,3,3,3-pentafluoro-propyl)-malonamide] the “MAB (human)” value [1] was 88.2%, the microsomal CLint at 10 μM [1] was 2.1 µL/min/mg and the “MAB (mouse)” value [2] was 32.7%. It also gave a microsomal CLint at 10 μM [2] of 65.2 µL/min/mg and a solubility thermodynamic [3] of 1.78 mg/mL (≈ 3240 µM).
